Assays:
[1] = tested on: 15 different HLA-DR molecules; assay: HLA-DR binding assays, panel of 15 different HLA-DR molecules (breadth of binding); conditions: number of the 15 HLA-DR molecules bound (binders: 1000 nM or better)
purified HLA DRB1*0405 = biological target: T1, purified HLA DRB1*0405 (Homo sapiens, UniProt P01903+P01911, A100R/A169T/D86S/F76Y/I96L/K127E/L162R/M171V/N62H/P40V/Q125Y/R42H/S133A/S149N/S66Y/V115G/V209L/W38E); assay: HLA-DR radioligand binding inhibition assay, DRB1*0405; conditions: IC50 nM purified HLA DRB1 *0405, purified HLA DRB1*0405
T1 construct: purified from EBV transformed homozygous cell lines or single MHC allele transfected 721.221, C1R, or fibroblast lines; made in house
Description: (§1) Instead, wells of an opaque white 96-well Optiplate (Packard) are coated with 3 μg (100 μl@ 30 μg/ml) of HLA-specific antibody (Ab) that “capture” complexes of radiolabeled MHC and unlabeled peptide transferred from the molecular binding assay plate in 100 μl of 0.05% NP40/PBS. After a 3-hour incubation period, the supernatant is decanted and scintillation fluid (Microscint 20) added. Captured complexes are then measured on a microplate scintillation and luminescence counter (TopCount NXTTM; Packard).
(§2) HLA-DR purification. Fifteen distinct HLA-DR molecules were used in quantitative assays to measure the binding of peptides to solubilized HLA-DR molecules. […] Briefly, columns of inactivated Sepharose CL4B and Protein A Sepharose were used as pre-columns. HLA-DR molecules were captured by passage of lysates over LB3.1 monoclonal antibody (anti-HLA-DRA) columns. Antibody columns were washed with 10 mM Tris-HCL, pH8.0 with 1% (v/v) NP-40, followed by PBS containing 0.4% (w/v) n-octylglucoside.
(§3) Briefly, 1-10 nM of radiolabeled peptide was co-incubated for 2 days at either room temperature or 37° C. with 1 μM to 1 nM purified HLA-DR molecules in the presence of a cocktail of protease inhibitors. Assays were performed at various pH conditions, ranging from pH 4 to pH 7. […] After incubation, the percentage of HLA-DR-bound radioactivity is determined by capturing HLA-DR/peptide complexes on Optiplates (Packard Instruments, Meriden, Conn.) coated with the LB3.1 antibody and determining bound counts per minute using the TopCount microscintillation counter (Packard Instruments).

purified HLA DRB1*0701 = biological target: T2, purified HLA DRB1*0701 (Homo sapiens, UniProt P01903+P01911, A100R/A102G/A103Q/D57E/D86V/E43K/F76Y/K127E/L162R/M171V/P40G/Q125H/Q99D/R33Q/R42Y/R54Q/S133A/S66F/T210M/V115G/Y107V/Y59L/Y89S); assay: HLA-DR radioligand binding inhibition assay, DRB1*0701; conditions: IC50 nM purified HLA DRB1 *0701, purified HLA DRB1*0701
T2 construct: purified from EBV transformed homozygous cell lines or single MHC allele transfected 721.221, C1R, or fibroblast lines; made in house
Description: as §1, §2, §3

purified HLA DRB1*1101 = biological target: T3, purified HLA DRB1*1101 (Homo sapiens, UniProt P01903+P01911, A100R/A169T/A87E/I96F/K41T/L162R/M171V/P40S/Q125H/Q178H/Q39Y/Q99D/R42S/S66Y/T262R/V115G/W38E); assay: HLA-DR radioligand binding inhibition assay, DRB1*1101; conditions: IC50 nM purified HLA DRB1 *1101, purified HLA DRB1*1101
T3 construct: purified from EBV transformed homozygous cell lines or single MHC allele transfected 721.221, C1R, or fibroblast lines; made in house
T3 sequence (P01903 26-254, other chains not shown): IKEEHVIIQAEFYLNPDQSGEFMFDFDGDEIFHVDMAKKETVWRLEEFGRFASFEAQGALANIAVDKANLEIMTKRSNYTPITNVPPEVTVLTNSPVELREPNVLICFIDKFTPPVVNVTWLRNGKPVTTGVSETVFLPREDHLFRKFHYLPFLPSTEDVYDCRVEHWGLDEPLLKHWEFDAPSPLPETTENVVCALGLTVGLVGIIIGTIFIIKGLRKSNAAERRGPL
Description: as §1, §2, §3

purified HLA DRB5*0101 = biological target: T4, purified HLA DRB5*0101 (Homo sapiens, UniProt P01903+Q30154); assay: HLA-DR radioligand binding inhibition assay, DRB5*0101; conditions: IC50 nM purified HLA DRB5 *0101, purified HLA DRB5*0101
T4 construct: purified from EBV transformed homozygous cell lines or single MHC allele transfected 721.221, C1R, or fibroblast lines; made in house
Description: as §1, §2, §3

purified HLA DRB1*0401 = biological target: T5, purified HLA DRB1*0401 (Homo sapiens, UniProt P01903+P01911, A100K/A169T/F76Y/I96L/K127E/L162R/M171V/N62H/P40V/Q125Y/R42H/S133A/S149N/S66Y/V115G/V209L/W38E); assay: HLA-DR radioligand binding inhibition assay, DRB1*0401; conditions: IC50 nM purified HLA DRB1 *0401, purified HLA DRB1*0401
T5 construct: purified from EBV transformed homozygous cell lines or single MHC allele transfected 721.221, C1R, or fibroblast lines; made in house
Description: as §1, §2, §3

purified HLA DRB1*1501 = biological target: T6, purified HLA DRB1*1501 (Homo sapiens, UniProt P01903+P01911); assay: HLA-DR radioligand binding inhibition assay, DRB1*1501
T6 construct: purified from EBV transformed homozygous cell lines or single MHC allele transfected 721.221, C1R, or fibroblast lines; made in house
Description: as §1, §2, §3

purified HLA DRB1*0101 = biological target: T7, purified HLA DRB1*0101 (Homo sapiens, UniProt P01903+P01911, A100R/D57E/F55L/F60I/F76Y/I96L/L162R/M171V/P40L/Q125E/R42F/V115G/Y59C); assay: HLA-DR radioligand binding inhibition assay, DRB1*0101; conditions: IC50 nM purified HLA DRB1 *0101, purified HLA DRB1*0101
T7 construct: purified from EBV transformed homozygous cell lines or single MHC allele transfected 721.221, C1R, or fibroblast lines; made in house
Description: as §1, §2, §3

purified HLA DRB1*1302 = biological target: T8, purified HLA DRB1*1302 (Homo sapiens, UniProt P01903+P01911, A100E/A169T/K41T/L162R/M171V/P40S/Q125H/Q178H/Q39Y/Q99D/R42S/S66N/T262R/V115G/W38E/Y61H); assay: HLA-DR radioligand binding inhibition assay, DRB1*1302
T8 construct: purified from EBV transformed homozygous cell lines or single MHC allele transfected 721.221, C1R, or fibroblast lines; made in house
Description: as §1, §2, §3

SMILES: CC[C@H](C)[C@H](NC(=O)[C@H](CCC(N)=O)NC(=O)[C@H](CCCNC(=N)N)NC(=O)[C@H](CC(N)=O)NC(=O)CNC(=O)[C@H](CC(=O)O)NC(=O)[C@@H](NC(=O)[C@H](CCCNC(=N)N)NC(=O)[C@H](CCC(=O)O)NC(=O)CNC(=O)[C@H](CCCCN)NC(=O)[C@H](Cc1ccc(O)cc1)NC(=O)[C@H](Cc1c[nH]c2ccccc12)NC(=O)[C@H](CO)NC(=O)[C@@H](N)Cc1ccc(O)cc1)C(C)C)C(=O)O [Peptide 9019.0108]
- Total XRN [1]: 8

SMILES: CC[C@H](C)[C@H](NC(=O)[C@H](CC(C)C)NC(=O)[C@H](CC(C)C)NC(=O)[C@H](CO)NC(=O)[C@H](C)NC(=O)[C@H](CC(N)=O)NC(=O)[C@@H]1CCCN1C(=O)[C@H](Cc1ccc(O)cc1)NC(=O)[C@@H](NC(=O)[C@@H](NC(=O)[C@H](CCC(=O)O)NC(=O)[C@H](CCCNC(=N)N)NC(=O)CN)[C@@H](C)CC)[C@@H](C)CC)C(=O)N[C@@H](CCC(N)=O)C(=O)N[C@@H](CC(N)=O)C(=O)O [Peptide 9019.0112]
- Total XRN [1]: 10

SMILES: CC[C@H](C)[C@H](NC(=O)[C@@H](NC(=O)[C@@H]1CCCN1C(=O)[C@H](C)NC(=O)[C@H](CC(=O)O)NC(=O)[C@@H]1CCCN1C(=O)CNC(=O)[C@H](Cc1ccc(O)cc1)NC(=O)[C@H](CC(C)C)NC(=O)[C@@H](NC(=O)[C@H](CC(N)=O)NC(=O)[C@@H](N)CC(C)C)C(C)C)[C@@H](C)O)C(=O)N[C@@H](CO)C(=O)N1CCC[C@H]1C(=O)N[C@@H](CC(C)C)C(=O)O [Peptide 9019.0120]
- IC50 (purified HLA DRB1*0405): > 20000 nM
- IC50 (purified HLA DRB1*0701): 410 nM
- IC50 (purified HLA DRB1*1101): > 20000 nM
- IC50 (purified HLA DRB5*0101): > 20000 nM

SMILES: CC(C)[C@H](NC(=O)[C@H](Cc1ccccc1)NC(=O)[C@H](Cc1c[nH]c2ccccc12)NC(=O)[C@H](CO)NC(=O)[C@H](Cc1ccc(O)cc1)NC(=O)[C@@H](N)CCC(N)=O)C(=O)N[C@@H](CC(N)=O)C(=O)NCC(=O)N[C@H](C(=O)N[C@@H](Cc1ccccc1)C(=O)N[C@@H](CCC(N)=O)C(=O)N[C@@H](CCC(N)=O)C(=O)N[C@@H](CO)C(=O)N[C@H](C(=O)N[C@@H](CCC(N)=O)C(=O)O)[C@@H](C)O)[C@@H](C)O [Peptide 9019.0122]
- IC50 (purified HLA DRB1*0401): 21 nM
- IC50 (purified HLA DRB1*1101): 230 nM
- IC50 (purified HLA DRB1*1501): > 20000 nM

SMILES: CC[C@H](C)[C@H](NC(=O)[C@@H](NC(=O)[C@@H](NC(=O)[C@@H](NC(=O)[C@@H](NC(=O)[C@@H](NC(=O)[C@@H](N)CCCNC(=N)N)[C@@H](C)O)[C@@H](C)O)C(C)C)[C@@H](C)O)[C@@H](C)O)C(=O)N[C@H](C(=O)N[C@H](C(=O)N[C@@H](Cc1ccc(O)cc1)C(=O)N[C@@H](C)C(=O)N[C@@H](CCC(=O)O)C(=O)N1CCC[C@H]1C(=O)N1CCC[C@H]1C(=O)N[C@@H](CCCCN)C(=O)O)C(C)C)[C@@H](C)O [Peptide 9019.0124]
- IC50 (purified HLA DRB1*0405): 32 nM
- IC50 (purified HLA DRB1*1101): > 20000 nM
- IC50 (purified HLA DRB1*1501): 83 nM

SMILES: CC[C@H](C)[C@H](NC(=O)[C@@H](NC(=O)[C@@H]1CCCN1C(=O)[C@H](CC(=O)O)NC(=O)[C@@H](N)CO)C(C)C)C(=O)N[C@@H](CC(C)C)C(=O)N[C@@H](CC(N)=O)C(=O)N[C@H](C(=O)N[C@@H](CC(C)C)C(=O)N[C@@H](Cc1ccc(O)cc1)C(=O)NCC(=O)N1CCC[C@H]1C(=O)N[C@@H](CC(=O)O)C(=O)N[C@@H](CC(=O)O)C(=O)N1CCC[C@H]1C(=O)O)C(C)C [Peptide 9019.0127]
- IC50 (purified HLA DRB1*1501): 5700 nM
- IC50 (purified HLA DRB5*0101): > 20000 nM

SMILES: CSCC[C@H](NC(=O)[C@H](C)NC(=O)[C@H](CC(C)C)NC(=O)[C@@H]1CCCN1C(=O)[C@H](Cc1ccccc1)NC(=O)[C@@H](NC(=O)[C@H](CCC(=O)O)NC(=O)[C@H](CCC(=O)O)NC(=O)[C@@H](N)CCC(=O)O)C(C)C)C(=O)N[C@@H](CC(N)=O)C(=O)N[C@@H](Cc1ccc(O)cc1)C(=O)N[C@@H](CC(C)C)C(=O)N[C@@H](CC(=O)O)C(=O)N[C@@H](CCCNC(=N)N)C(=O)N[C@@H](Cc1ccccc1)C(=O)O [Peptide 9019.0152]
- IC50 (purified HLA DRB1*0101): 850 nM
- IC50 (purified HLA DRB1*1302): 26 nM
- IC50 (purified HLA DRB1*1501): 77 nM

Reference: patent US20140377340A1, “HLA-DR BINDING PEPTIDES AND THEIR USES” (priority 2007, published 2014)
